# Experiments:
# Type in all cases: cell-based
# Phytophthora capsisi = assay: In vitro mycelial/spore growth on potato-sucrose-agar, percent disease control (PC); conditions: read-out: % controlled, PC
# Protocol: (§1) The compounds of this invention were dissolved respectively in acetone in an amount equal to 10% of the final volume and then in purified water at the concentration of 100 ppm and 50 ppm.
# (§2) Each of the solution was mixed with potato-sucrose-agar medium in 6" petri dish and one of the fungi was spotted at the center of the dish. The dish was incubated in growth room for several days. The percent disease control was derived from the radii of spore growth. The screening tests in vitro condition are well-known to those skilled in the art.
# (§3) The following fungi were used for the screening.
# 2) Phy. ca.; Phytophthora capsisi
# Botryosphaeri = assay: In vitro mycelial/spore growth on potato-sucrose-agar, percent disease control (BD); conditions: read-out: % controlled, BD
# Protocol: as §1, §2, §3
# 4) Bo. do (Ma); Botryosphaeri
# GC = assay: In vitro mycelial/spore growth on potato-sucrose-agar, percent disease control (GC); conditions: read-out: % controlled, GC; for inhibition of growth at 50 ppm: GC
# Protocol: as §1, §2, §3
# Pyricalaria oryzae = assay: In vitro mycelial/spore growth on potato-sucrose-agar, percent disease control (PO); conditions: read-out: % controlled, PO
# Protocol: as §1, §2, §3
# 6) Py. or.; Pyricalaria oryzae
# Rhizoctonia solani = assay: In vitro mycelial/spore growth on potato-sucrose-agar, percent disease control (RS, first column); conditions: read-out: % controlled, RS
# Protocol: as §1, §2, §3
# 7) Rhi. so.; Rhizoctonia solani
# Fusarium moniliforme = assay: In vitro mycelial/spore growth on potato-sucrose-agar, percent disease control (FM); conditions: Fusarium verticillioides, Fusarium moniliforme, read-out: % controlled, FM
# Protocol: as §1, §2, §3
# 8) Fu. mo.; Fusarium moniliforme
# Rhizopus sp. = assay: In vitro mycelial/spore growth on potato-sucrose-agar, percent disease control (RS, second column); conditions: read-out: % controlled, RS; for inhibition of growth at 50 ppm: Rhizopus sp.; for inhibition of growth at 200 ppm: Rhizopus
# Protocol: as §1, §2, §3
# 9) Rhi. sp.; Rhizopus sp.
# Botritis cinerea = assay: In vitro mycelial/spore growth on potato-sucrose-agar, percent disease control (BC); conditions: read-out: % controlled, BC
# Protocol: as §1, §2, §3
# 10) Bo. ci.; Botritis cinerea
SMILES,inhibition of growth at 50 ppm (Phytophthora capsisi) [%],inhibition of growth at 200 ppm (Phytophthora capsisi) [%],inhibition of growth at 50 ppm (Botryosphaeri) [%],inhibition of growth at 200 ppm (Botryosphaeri) [%],inhibition of growth at 50 ppm (GC) [%],inhibition of growth at 200 ppm (GC) [%],inhibition of growth at 50 ppm (Pyricalaria oryzae) [%],inhibition of growth at 200 ppm (Pyricalaria oryzae) [%],inhibition of growth at 50 ppm (Rhizoctonia solani) [%],inhibition of growth at 200 ppm (Rhizoctonia solani) [%],inhibition of growth at 50 ppm (Fusarium moniliforme) [%],inhibition of growth at 200 ppm (Fusarium moniliforme) [%],inhibition of growth at 50 ppm (Rhizopus sp.) [%],inhibition of growth at 200 ppm (Rhizopus sp.) [%],inhibition of growth at 50 ppm (Botritis cinerea) [%],inhibition of growth at 200 ppm (Botritis cinerea) [%]
"Clc1ccc([Si]2(Cn3cncn3)CCCCC2)c(Cl)c1 [1-(2,4-dichlorophenyl)-1-(1H-1,2,4-triazole-1-yl)methyl-1-silacyclohexane]",65,87,98,100,100,100,100,100,20,50,100,100,50,72,97,100
"Clc1ccc([Si]2(Cn3cncn3)CCCC2)c(Cl)c1 [1-(2,4-dichlorophenyl)-1-(1H-1,2,4-triazole-1-yl)methyl-1-silacyclopentane]",72,79,97,100,100,100,100,100,65,100,100,100,59,70,99,100
"CC(n1cncn1)[Si]1(c2ccc(Cl)cc2Cl)CCCC1 (stereo not drawn) [1-(2,4-dichlorophenyl)-1-[α-(1H-1,2,4-triazole-1-yl)ethyl)-1-silacyclopentane]",83,96,95,100,100,100,100,100,69,87,100,100,68,94,92,100
"CC(n1cncn1)[Si]1(c2ccc(Cl)cc2Cl)CCCCC1 (stereo not drawn) [1-(2,4-dichlorophenyl)-1-[α-(1H-1,2,4-triazole-1-yl)ethyl]-1-silacyclohexane]",64,100,100,100,100,100,100,100,100,100,100,100,54,60,100,100
"Fc1ccc([Si]2(Cn3cncn3)CCCCC2)c(F)c1 [1-(2,4-difluorophenyl)-1-(1H-1,2,4-triazole-1-yl)methyl-1-silacyclohexane]",67,89,100,100,100,100,100,100,41,61,100,100,53,61,100,100
"Fc1ccc([Si]2(Cn3cncn3)CCCC2)c(F)c1 [1-(2,4-difluorophenyl)-1-(1H-1,2,4-triazole-1-yl)methyl-1-silacyclopentane]",32,85,100,100,100,100,100,100,76,100,100,100,63,72,100,100
"CC(n1cncn1)[Si]1(c2ccc(F)cc2F)CCCCC1 (stereo not drawn) [1-(2,4-difluorophenyl)-1-[α-(1H-1,2,4-triazole-1-yl)ethyl]-1-silacyclohexane]",82,100,100,100,100,100,100,100,96,100,100,100,53,79,100,100
"CC(n1cncn1)[Si]1(c2ccc(F)cc2F)CCCC1 (stereo not drawn) [1-(2,4-difluorophenyl)-1-[α-(1H-1,2,4-triazole-1-yl)ethyl]-1-silacyclopentane]",45,94,100,100,100,100,100,100,79,100,100,100,78,87,100,100
"c1ccc(-c2ccc([Si]3(Cn4cncn4)CCCCC3)cc2)cc1 [1-(4-biphenyl)-1-(1H-1,2,4-triazole-1-yl)methyl-1-silacyclohexane]",92,100,100,100,100,100,100,100,71,80,100,100,72,94,100,100
"c1ccc(-c2ccc([Si]3(Cn4cncn4)CCCC3)cc2)cc1 [1-(4-biphenyl)-1-(1H-1,2,4-triazole-1-yl)methyl-1-silacyclopentane]",68,100,72,72,100,100,100,100,89,93,47,100,69,72,15,30
